Source: patent publication US11452720B2, “Crystalline polymorphs of the free base of 2-hydroxy-6-((2-(1-isopropyl-1H-pyrazol-5-yl)pyridin-3-yl)methoxy)benzaldehyde” (Global Blood Therapeutics, Inc., priority 2014, dated 2022)
“Also recorded” adds a separate entry of the source. Counter-ions that a name gives are not always drawn. Blank lines part the entries; values can stand above or below the compound they belong to.

What was measured:
Type in all cases: physicochemical
[1] = Estimated transition temperature and relative thermodynamic stability of free base forms
Excerpt: Phase transitions of solids can be thermodynamically reversible or irreversible. Crystalline forms which transform reversibly at a specific transition temperature (T) are called enantiotropic polymorphs. If the crystalline forms are not interconvertable under these conditions, the system is monotropic (one thermodynamically stable form). Several rules have been developed to predict the relative thermodynamic stability of polymorphs and whether the relationship between the polymorphs is enantiotropic or monotropic. The heat of fusion rule is applied within this study. The heat of fusion rule states that if the higher melting form has the lower heat of fusion then the two forms are enantiotropic, otherwise they are monotropic.
The estimated transition temperature between two enantiotropically related forms can be calculated from their melt onsets and heats of fusion based on the equation shown below.

[2] = Physical stability evaluation of Free Base Form II and Material N (modulated DSC / temperature and humidity exposure, then XRPD); settings: for change in physical form by XRPD: 40° C./75% RH, 80° C./80% RH for 9 days; for change in physical form by XRPD after modulated DSC: underlying heating rate 0.02° C. min^−1
Description: DSC was modulated at low underlying heating rate, followed by X-ray powder diffraction. A low underlying heating rate was used of 0.02° C. min^−1. The temperature was 80° C. for form N and 90° C. for form II. Exposure was essentially isothermal, covering a temperature range with sensitivity to detect changes in physical form. The resultant materials were examined by X-ray powder diffraction.
Forms II and N were exposed to 40° C./75% relative humidity (RH), 80° C., 80° C./80% RH for 9 days followed by X-ray powder diffraction.

[3] = Extended solvent mediated maturation of form II / form N mixtures in hexane; settings: temperatures of 20° C. and lower
Description: Extended solvent mediated maturation studies were conducted with 1:1 w/w mixtures of polymorphic form II and form N. Hexane provided a good medium for solvent assessments. The temperatures used include −20° C., −10° C., 0° C., 10° C., 20° C., 30° C., 40° C. and 50° C. […] Solids derived from maturation at −20° C., −10° C., 0° C., 10° C., 20° C. were analyzed by X-ray powder diffraction.

[4] = Dynamic vapor sorption (DVS) with post-DVS XRPD; settings: for DVS weight loss from 95 to 5% RH: desorption 95 to 5% RH; for post-DVS XRPD result: material recovered from the DVS experiment; for DVS weight gain from 5 to 95% RH: sorption 5 to 95% RH
Description: Dynamic vapor sorption (DVS) data were collected on a VTI SGA-100 Vapor Sorption Analyzer. NaCl and PVP were used as calibration standards. Samples were not dried prior to analysis. Adsorption and desorption data were collected over a range from 5 to 95% RH at 10% RH increments under a nitrogen purge. The equilibrium criterion used for analysis was less than 0.0100% weight change in 5 minutes with a maximum equilibration time of 3 hours. Data were not corrected for the initial moisture content of the samples.

[5] = Physical stability of the HCl salt exposed to water (disproportionation, XRPD)
Description: Solutions were prepared by adding enough solids to a given solvent so that excess solids were present. The mixture was then agitated in a sealed vial at either ambient or an elevated temperature. After a given amount of time, the solids were isolated for analysis.
(§1) The HCl salt (termed “HCl Form I”) was subjected to various stress conditions and monitored by XRPD to evaluate physical stability. […] Disproportionation is further evident with wet milling or in direct contact with water (e.g. slurry) as shown by the presence of Free Base Forms I or II, identified by XRPD. […] (after 12 hrs), 40° C. (after 6 hrs), and at 40° C./48 mmHg (after 6 hrs). • Free Base Material C becomes evident at more extreme conditions involving elevated temperatures. Heating HCl Form I up to 125° C. induces the loss of acidic volatiles (judged visually by use of pH paper held above sample). […] Exposing the HCl salt to 60° C. under vacuum for 6 days provides the same result. The nature of Material C is not established

[6] = Physical stability of the HCl salt with grinding (XRPD); settings: 30 min
Description: Selected material was milled utilizing a Reitch Mill. The material was loaded into an agate lined milling vessel followed by the addition of an agate ball. The vessel was then placed on to the mill and milled for approximately 30 minutes at frequency of […]. The milling was stopped approximately every 10 minutes and material scraped from the wall before further milling.

[7] = Physical stability of the HCl salt exposed to elevated temperature and/or vacuum (XRPD)
Description: Selected materials were stressed at elevated related humidity and/or temperature. Relative humidity jars (saturated salt solutions used to generate desired relative humidity) were utilized to store selected samples. The following relative humidity jars were utilized during evaluation: 75% RH (NaCl) and 60% (NaBr), to investigate the effects of humidity. Temperatures utilized were ambient, 30, 40, 60, and 100-125° C.
Selected materials were stressed under reduced pressure for a set time period. Initial stressing was conducted with the in-house vacuum system with absolute pressure readings <500 mTorr, typically 30 to 50 mTorr (0.030 to 0.05 mm Hg). Additional vacuum stressing was conducted at 48 mmHg utilizing a portable lab vacuum and bleed to simulate conditions similar to those expected during process.
as §1

[8] = Ambient storage of Form II, reanalysis by XRPD; settings: after 7 days
Excerpt: The form is known to be thermodynamically metastable, relative to Material N, at this condition; however, the kinetics of polymorph conversion may be slow at ambient conditions in the solid state.

[9] = Chemical and physical stability evaluation of Free Base Form I (UPLC, XRPD)
Description: Three conditions were used; open to 25° C./60% RH, open to 40° C./75% RH, and closed to 60° C. Physical stability was evaluated by XRPD. Chemical stability was determined through UPLC and ^1H NMR, when applicable. Materials were tested after 1, 7, and 14 days of exposure.

[10] = Disproportionation of the sulfate salt when precipitated with water; settings: from solvents such as dimethyl sulfoxide and methanol when precipitated with water
Excerpt: This invention arises in part out the discovery that an HCl salt of Compound 1 disproportionates or loses HCl, and a disproportionation of the HCl salt of Compound 1 in water generates the free base and disproportionation was facile upon exposure to elevated humidity, with wet milling, and in direct contact with water (e.g. slurry). The sulfate salt of Compound 1 also disproportionates from certain solvents such as dimethyl sulfoxide and methanol when precipitated with water. The volatilization of HCl was evident within hours of exposure to drying conditions. For example, partial conversion to the free base was observed within 12 hours at 30° C. Accordingly, the free base of Compound 1 provides a stabler chemical entity compared to the corresponding HCl or sulfate and such other salt.

Structure (SMILES): CC(C)n1nccc1-c1ncccc1COc1cccc(O)c1C=O [Material N, 2-hydroxy-6-((2-(1-isopropyl-1H-pyrazol-5-yl)pyridin-3-yl)methoxy)benzaldehyde]
- Relative Stability ([1]; Below 6° C.): N > II
- Relative Stability ([1]; Between 6° C. and T^N-II): N > II > I
- change in physical form by XRPD ([2]; 80° C.): No changes in physical form
- change in physical form by XRPD after modulated DSC ([2]; 80° C.): No changes in physical form
- relative thermodynamic stability [3]: thermodynamically more stable than form II

Structure (SMILES): CC(C)n1nccc1-c1ncccc1COc1cccc(O)c1C=O [HCl salt of Compound 1, 2-hydroxy-6-((2-(1-isopropyl-1H-pyrazol-5-yl)pyridin-3-yl)methoxy)benzaldehyde]
- DVS weight loss from 95 to 5% RH [4]: 0.09% loss from 95 to 5% RH
- DVS weight gain upon equilibration at 5% RH ([4]; equilibration at 5% RH): 0.03% gain upon equilibration at 5% RH
- post-DVS XRPD result [4]: HCl I + Free Base Form I
- post-DVS XRPD result ([4]; listed as HCl salt): disproportionation occurred
- DVS weight gain from 5 to 95% RH [4]: 0.10% gain from 5 to 95% RH
- disproportionation on contact with water ([5]; contact with water): Immediate disproportionation occurs; also recorded: disproportionate immediately
- XRPD Result ([5]; vacuum dried, about 1 day): FB I
- XRPD Result ([5]; water slurry, about 5 min): Free base (FB) I
- XRPD Result ([5]; water slurry, about 5 min, listed as HCl salt): Free Base Form I
- XRPD Result ([5]; water slurry, about 6 days): FB I + FB II
- XRPD Result ([6]; dry): HCl I
- XRPD Result ([6]; wet): HCl I + FB I
- time after which conversion to Free Base Form I was observed by XRPD ([7]; 30° C.): 12 h
- XRPD Result ([7]; 30° C., 6 hrs): HCl I
- XRPD Result ([7]; 30° C., 12 hrs): HCl I + FB I
- XRPD Result ([7]; 30° C., 24 hrs): HCl I + FB I
- time within which partial conversion to the free base was observed ([7]; 30° C., drying conditions): ≤ 12 h
- time after which conversion to Free Base Form I was observed by XRPD ([7]; 40° C.): 6 h
- XRPD Result ([7]; 40° C. vacuum, 6 hrs): HCl I + FB I
- XRPD Result ([7]; 40° C. vacuum, 12 hrs): HCl I + FB I
- XRPD Result ([7]; 40° C. vacuum, 24 hrs): HCl I + FB I
- XRPD Result ([7]; 40° C., 6 hrs): HCl I + FB I
- XRPD Result ([7]; 40° C., 12 hrs): HCl I + FB I
- XRPD Result ([7]; 40° C., 24 hrs): HCl I + FB I
- time after which conversion to Free Base Form I was observed by XRPD ([7]; 40° C./48 mmHg): 6 h
- XRPD Result ([7]; 60° C. vacuum, 6 days): HCl I + FB I +
- XRPD Result ([7]; 60° C. vacuum, 6 days, listed as HCl salt): same result
- XRPD Result ([7]; 60° C., 6 days): HCl I + FB I
- XRPD Result ([7]; 100 to 125° C., 20 min): HCl I + FB I +
- XRPD Result ([7]; 100 to 125° C., 20 min, listed as HCl Form I): mixture of HCl Form I, Free Base Form I, and Free Base Material C
- XRPD Result ([7]; RT vacuum, 6 days): HCl I + FB I

Now from value to compound, other results behind:

- Relative Stability ([1]; Above T^N-II): (II > I)
- Relative Stability ([1]; Below 6° C.): N > II
- Relative Stability ([1]; Between 6° C. and T^N-II): N > II > I
- change in physical form by XRPD ([2]; 80° C.): No changes in physical form
- change in physical form by XRPD after modulated DSC ([2]; 90° C.): No changes in physical form
Structure (SMILES): CC(C)n1nccc1-c1ncccc1COc1cccc(O)c1C=O [Form II, 2-hydroxy-6-((2-(1-isopropyl-1H-pyrazol-5-yl)pyridin-3-yl)methoxy)benzaldehyde]
- XRPD after storage [8]: remained unchanged; also recorded: Free Base Form II

- hygroscopicity by DVS isotherm [4]: not hygroscopic
- weight gain and loss through sorption/desorption ([4]; DVS): 0.2%
- DVS weight loss from 95 to 5% RH [4]: 0.22% loss from 95 to 5% RH
- DVS weight loss upon equilibration at 5% RH ([4]; equilibration at 5% RH): 0.02% loss upon equilibration at 5% RH
- DVS weight gain from 5 to 95% RH [4]: 0.22% gain from 5 to 95% RH
- chemical stability: level of impurities by UPLC ([9]; open 25° C./60% RH, open 40° C./75% RH, closed 60° C., after 14 days): did not rise significantly
- physical stability by XRPD ([9]; open to 25° C./60% RH, 1, 7 and 14 days): remained unchanged
- physical stability by XRPD ([9]; open to 40° C./75% RH and closed to 60° C., after 7 days): Free Base Form II was observed
Structure (SMILES): CC(C)n1nccc1-c1ncccc1COc1cccc(O)c1C=O [Form I, 2-hydroxy-6-((2-(1-isopropyl-1H-pyrazol-5-yl)pyridin-3-yl)methoxy)benzaldehyde]
- post-DVS XRPD result [4]: predominately Free Base Form I with a few additional peaks; also recorded: Free Base Form I + other Free Base Material

- disproportionation of the salt [10]: disproportionates
Structure (SMILES): CC(C)n1nccc1-c1ncccc1COc1cccc(O)c1C=O [sulfate salt of Compound 1, 2-hydroxy-6-((2-(1-isopropyl-1H-pyrazol-5-yl)pyridin-3-yl)methoxy)benzaldehyde]
